Measurements from paper PMC9405847, “Design, Synthesis and Pharmacological Evaluation of Novel Conformationally Restricted N-arylpiperazine Derivatives Characterized as D2/D3 Receptor Ligands, Candidates for the Treatment of Neurodegenerative Diseases” (Biomolecules, 2022).

Experiments:
[1] = biological target: human D3 dopaminergic receptor (D3R) (Homo sapiens, UniProt P35462); test: Competition binding of [3H]-spiperone and GTP-shift (functional binding) in membranes of recombinant Chem-1 cells; conditions: for IC50: D3R, [3H]-spiperone 0.5 nM, 95% confidence interval in parentheses; for Na+-Shift (II/I) D3R: IC50 in NaCl + GTP (II) divided by IC50 in MgCl2 + CaCl2 (I); for Intrinsic Efficacy at D3R: classified from the Na+-shift (GTP-shift assay)
Sequence of human D3 dopaminergic receptor (D3R) (P35462 whole entry): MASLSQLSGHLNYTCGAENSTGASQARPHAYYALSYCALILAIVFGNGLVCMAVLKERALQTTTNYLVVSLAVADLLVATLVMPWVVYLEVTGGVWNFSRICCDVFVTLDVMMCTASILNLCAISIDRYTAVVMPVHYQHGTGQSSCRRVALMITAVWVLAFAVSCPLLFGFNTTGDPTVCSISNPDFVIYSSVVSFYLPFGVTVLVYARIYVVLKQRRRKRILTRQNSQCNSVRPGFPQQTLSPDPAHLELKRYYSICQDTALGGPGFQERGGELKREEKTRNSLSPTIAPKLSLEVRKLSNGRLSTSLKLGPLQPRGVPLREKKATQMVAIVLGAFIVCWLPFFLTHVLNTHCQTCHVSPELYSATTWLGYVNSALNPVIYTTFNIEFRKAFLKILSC

D2R = biological target: T1, D2R (Rattus norvegicus, UniProt P61169); test: Competition binding of [3H]-YM-09151-2 to D2-like receptors in rat striatal membranes
T1 construct: from tissue; host or cells: striatum of adult male Wistar rats
T1 sequence (P61169 whole entry): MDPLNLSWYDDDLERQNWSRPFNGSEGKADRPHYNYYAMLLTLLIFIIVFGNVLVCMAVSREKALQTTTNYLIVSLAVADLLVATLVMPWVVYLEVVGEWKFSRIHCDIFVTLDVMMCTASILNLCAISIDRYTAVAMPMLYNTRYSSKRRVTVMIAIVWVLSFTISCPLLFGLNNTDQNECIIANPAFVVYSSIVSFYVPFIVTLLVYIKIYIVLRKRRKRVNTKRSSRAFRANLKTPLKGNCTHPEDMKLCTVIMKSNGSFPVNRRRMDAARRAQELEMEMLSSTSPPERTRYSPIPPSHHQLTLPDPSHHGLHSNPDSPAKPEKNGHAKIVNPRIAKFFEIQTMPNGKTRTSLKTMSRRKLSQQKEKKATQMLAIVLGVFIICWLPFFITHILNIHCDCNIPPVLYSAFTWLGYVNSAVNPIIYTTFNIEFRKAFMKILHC
Description: Finally, to evaluate the selectivity of the substances, classic binding to D2-like receptors was performed using rat striatal membranes. Adult male Wistar rats (2.5–3 months) were killed by decapitation, their brains were immediately removed on ice and the striatum was dissected and stored in liquid nitrogen until use. This procedure was approved by the Institutional Ethical Committee for Animal Care from the Federal University of Rio de Janeiro (CEUA no. 052/19; 30 April 2019). The striatum was homogenized in a motorized Potter-type apparatus with a Teflon piston at 4 °C at 20 volumes per gram of tissue in ice-cold 50 mM Tris-HCl buffer (pH 7.4) containing 8 mM MgCl2 and 5 mM ethylenediaminetetraacetic acid (EDTA). The resulting suspension was ultracentrifuged at 48,000× g at 4 °C for 20 min. The pellet was resuspended in 20 volumes of the same buffer and incubated at 37 °C for 10 min to remove endogenous neurotransmitters. This suspension was cooled and ultracentrifuged at 48,000× g for 20 min at 4 °C [46]. The final pellet was resuspended and stored in liquid nitrogen until use.
In a medium containing the antagonist radioligand [^3H]-YM-09151-2 0.1 nM, 120 mM NaCl, 5 mM KCl, 5 mM MgCl2, 1.5 mM CaCl2, 1 mM EDTA and 50 mM Tris-HCl (pH 7.2 a 25 °C), 50 µg of […] striatum membrane was incubated in the dark (sodium light) for 60 min at 37 °C. Nonspecific binding was estimated using sulpiride (30 µM).

[2] = IC50 (MgCl2 + CaCl2), medium I: 5 mM MgCl2 and 1.5 mM CaCl2
[3] = IC50 (NaCl + GTP), medium II: 154 mM NaCl and 1 mM GTP

Compound | melting point [°C] | IC50 [1, 2] [nM] | IC50 [1, 3] [nM] | Na+-Shift (II/I) D3R [1] | Intrinsic Efficacy at D3R [1] | Ki (D2R) [nM]
COc1ccccc1N1CCN(Cc2ccc(NS(=O)(=O)c3ccc4c(c3)OCO4)cc2)CC1 [Compound 5e, N-(4-((4-(2-Methoxyphenyl)piperazin-1-yl)methyl)phenyl) Benzo [d] [1,3] Dioxole-5-sulfonamide] | 149 to 151 | 230 | 200 | 0.9 | antagonist | 100
Cc1cc2c(cc1S(=O)(=O)Nc1ccc(CN3CCN(c4ccccc4)CC3)cc1)OCO2 [Compound 5a, 6-Methyl-N-(4-((4-phenylpiperazin-1-yl)methyl)phenyl) Benzo [d] [1,3] Dioxole-5-sulfonamide] | 154 to 156 | 1100 | 1200 | 1.1 | antagonist | 440
COc1ccccc1N1CCN(Cc2ccc(NS(=O)(=O)c3cc4c(cc3C)OCO4)cc2)CC1 [Compound 5b, N-(4-((4-(2-Methoxyphenyl)piperazin-1-yl)methyl)phenyl)-6-methylbenzo [d] [1,3] Dioxole-5-sulfonamide] | 183 to 185 | 760 | 290 | 0.4 | weak inverse agonist | 80
Cc1cc2c(cc1S(=O)(=O)Nc1ccc(CN3CCN(c4cccc(Cl)c4Cl)CC3)cc1)OCO2 [Compound 5c, N-(4-((4-(2,3-Dichlorophenyl)piperazin-1-yl)methyl)phenyl)-6-methylbenzo [d] [1,3] Dioxole-5-sulfonamide] | 192 to 194 | 750 | 780 | 1 | antagonist | 400
O=S(=O)(Nc1ccc(CN2CCN(c3ccccc3)CC2)cc1)c1ccc2c(c1)OCO2 [Compound 5d, N-(4-((4-Phenylpiperazin-1-yl) Methyl) Phenyl) Benzo [d] [1,3] Dioxole-5-Sulfonamide] | 178 to 180 | 420 | 990 | 2.4 | partial agonist | 820
O=S(=O)(Nc1ccc(CN2CCN(c3cccc(Cl)c3Cl)CC2)cc1)c1ccc2c(c1)OCO2 [Compound 5f, N-(4-((4-(2,3-Dichlorophenyl)piperazin-1-yl)methyl)phenyl) Benzo [d] [1,3] Dioxole-5-sulfonamide] | 163 to 166 | 110 | 200 | 1.8 | partial agonist | 200
